Values joined by “and” are separate entries in the source; they are usually repeats but may differ in a detail not shown here. Equal values may be shown once. Read-outs that look alike come from different tables or passages of the source.
Experiments:
[1] = target: T1, rat isoform of TRPM8 channels (Rattus norvegicus, UniProt Q8R455); assay: Ca2+ fluorimetric assay, menthol-activated channel; assay type: cell-based
T1 construct: expressed in transfected cells
Method: TRPM8 blocker activity of all synthesized compounds was tested by Ca^2+ fluorimetric assays using HEK-293 cells stably expressing the rat isoform of TRPM8 channels, using menthol and AMTB as prototypical agonist and antagonist, respectively.
For measurement of the potency of the compounds, fluorimetric experiments were performed using HEK-293 cells (CRL-1573TM, American Type Culture Collection, LGC Promochem, Molsheim, France) that stably express rat TRPM8. The cells were seeded in 96-well plates (Corning Incorporated, Corning, NY) at a cell density of 40 000 cells 2 days before treatment. On the day of treatment, the medium was replaced with 100 μL of the dye loading solution Fluo-4 NW supplemented with probenecid 2.5 mM.
The tested molecules dissolved in DMSO were added at the desired concentrations, and the plates were incubated in darkness at 37 °C in a humidified atmosphere of 5% CO2 for 60 min. The fluorescence was measured using instrument settings appropriate for excitation at 485 nm and emission at 535 nm (POLARstar Omega BMG LABtech). A baseline recording of four cycles was recorded prior to stimulation with the agonist (100 μM menthol for TRPM8). The TRPM8 antagonist, 10 μM AMTB, was added to the medium containing the corresponding agonist to induce channel blockade. The changes in fluorescence intensity were recorded during 15 cycles more. The higher concentration of DMSO used in the experiment was added to the control wells. The cells’ fluorescence was measured before and after the addition of various concentrations of test compounds. The fluorescence values obtained are normalized to that prompted by the corresponding agonist (for channel activating compounds) or upon agonist and antagonist coexposure (for channel blocker compounds).

hTRPV1 = target: T2, hTRPV1 (Homo sapiens, UniProt Q8NER1); assay: Selectivity fluorimetric assay, CHO-K1 cells; assay type: cell-based; settings: capsaicine as reference agonist
T2 construct: expressed in transfected cells; host or cells: CHO-K1, stably transfected
T2 sequence (Q8NER1 whole entry): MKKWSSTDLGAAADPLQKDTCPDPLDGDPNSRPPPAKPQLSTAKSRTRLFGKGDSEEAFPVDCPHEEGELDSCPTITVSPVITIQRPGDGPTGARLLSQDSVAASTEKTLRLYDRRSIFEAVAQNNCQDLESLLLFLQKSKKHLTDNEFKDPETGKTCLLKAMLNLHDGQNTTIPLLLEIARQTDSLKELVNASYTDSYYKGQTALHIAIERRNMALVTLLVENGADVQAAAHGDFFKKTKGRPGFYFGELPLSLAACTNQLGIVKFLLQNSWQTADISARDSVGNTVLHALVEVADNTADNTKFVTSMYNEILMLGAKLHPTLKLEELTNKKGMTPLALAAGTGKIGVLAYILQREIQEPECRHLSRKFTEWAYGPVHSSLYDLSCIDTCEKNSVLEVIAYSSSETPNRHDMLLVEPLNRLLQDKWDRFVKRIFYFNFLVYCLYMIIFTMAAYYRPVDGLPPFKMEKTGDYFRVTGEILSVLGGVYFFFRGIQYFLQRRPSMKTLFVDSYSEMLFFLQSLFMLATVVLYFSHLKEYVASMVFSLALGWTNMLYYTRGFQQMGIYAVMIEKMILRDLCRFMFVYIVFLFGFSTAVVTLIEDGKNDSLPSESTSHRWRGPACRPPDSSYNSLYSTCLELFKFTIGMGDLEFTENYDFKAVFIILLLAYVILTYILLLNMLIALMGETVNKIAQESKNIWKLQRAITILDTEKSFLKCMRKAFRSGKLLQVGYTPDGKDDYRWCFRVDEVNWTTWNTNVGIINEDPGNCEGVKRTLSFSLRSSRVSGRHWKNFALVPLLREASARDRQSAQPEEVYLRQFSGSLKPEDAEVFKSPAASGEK

hTRPA1 = target: T3, hTRPA1 (Homo sapiens, UniProt O75762); assay: Selectivity fluorimetric assay, HEK-293 cells; assay type: cell-based; settings: AITC as reference agonist
T3 construct: expressed in transfected cells; host or cells: HEK-293, stably transfected
T3 sequence (O75762 whole entry): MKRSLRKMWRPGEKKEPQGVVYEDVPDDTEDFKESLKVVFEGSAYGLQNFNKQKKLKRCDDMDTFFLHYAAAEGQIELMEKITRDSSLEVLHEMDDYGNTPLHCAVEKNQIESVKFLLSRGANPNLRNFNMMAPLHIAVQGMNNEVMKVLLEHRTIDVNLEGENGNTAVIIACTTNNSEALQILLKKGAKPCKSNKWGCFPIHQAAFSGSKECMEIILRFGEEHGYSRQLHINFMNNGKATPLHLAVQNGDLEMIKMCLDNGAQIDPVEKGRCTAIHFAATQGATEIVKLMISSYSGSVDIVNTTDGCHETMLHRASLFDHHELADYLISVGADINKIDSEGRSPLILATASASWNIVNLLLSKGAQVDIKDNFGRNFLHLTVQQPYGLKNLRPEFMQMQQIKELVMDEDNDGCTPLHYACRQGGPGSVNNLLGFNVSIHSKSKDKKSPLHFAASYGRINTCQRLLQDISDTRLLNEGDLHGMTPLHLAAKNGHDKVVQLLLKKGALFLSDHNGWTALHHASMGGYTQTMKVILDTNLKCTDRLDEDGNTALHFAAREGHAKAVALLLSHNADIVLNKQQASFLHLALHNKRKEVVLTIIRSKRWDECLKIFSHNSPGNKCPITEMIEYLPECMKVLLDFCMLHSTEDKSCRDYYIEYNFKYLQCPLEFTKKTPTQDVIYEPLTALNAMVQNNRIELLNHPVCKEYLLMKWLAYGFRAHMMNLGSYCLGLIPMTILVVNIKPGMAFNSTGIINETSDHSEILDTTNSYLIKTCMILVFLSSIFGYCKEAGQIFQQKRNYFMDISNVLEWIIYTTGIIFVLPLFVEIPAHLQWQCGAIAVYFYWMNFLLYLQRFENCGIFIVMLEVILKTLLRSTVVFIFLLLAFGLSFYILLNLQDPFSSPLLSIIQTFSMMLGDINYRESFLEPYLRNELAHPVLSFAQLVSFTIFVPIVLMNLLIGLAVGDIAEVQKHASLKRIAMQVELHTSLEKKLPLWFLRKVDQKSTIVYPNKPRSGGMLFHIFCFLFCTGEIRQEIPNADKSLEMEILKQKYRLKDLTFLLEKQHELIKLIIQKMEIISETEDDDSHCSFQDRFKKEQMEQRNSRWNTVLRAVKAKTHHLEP

hNav1.7 = target: T4, hNav1.7 (Homo sapiens, UniProt Q15858); assay: Selectivity fluorimetric assay, HEK-293 cells; assay type: cell-based; settings: for IC50: read-out: IC50, antagonistic activity over Nav1.7; for activity as agonist or antagonist on Nav1.7: veratridine as reference agonist
T4 construct: expressed in transfected cells; host or cells: HEK-293, stably transfected
T4 sequence (Q15858 whole entry): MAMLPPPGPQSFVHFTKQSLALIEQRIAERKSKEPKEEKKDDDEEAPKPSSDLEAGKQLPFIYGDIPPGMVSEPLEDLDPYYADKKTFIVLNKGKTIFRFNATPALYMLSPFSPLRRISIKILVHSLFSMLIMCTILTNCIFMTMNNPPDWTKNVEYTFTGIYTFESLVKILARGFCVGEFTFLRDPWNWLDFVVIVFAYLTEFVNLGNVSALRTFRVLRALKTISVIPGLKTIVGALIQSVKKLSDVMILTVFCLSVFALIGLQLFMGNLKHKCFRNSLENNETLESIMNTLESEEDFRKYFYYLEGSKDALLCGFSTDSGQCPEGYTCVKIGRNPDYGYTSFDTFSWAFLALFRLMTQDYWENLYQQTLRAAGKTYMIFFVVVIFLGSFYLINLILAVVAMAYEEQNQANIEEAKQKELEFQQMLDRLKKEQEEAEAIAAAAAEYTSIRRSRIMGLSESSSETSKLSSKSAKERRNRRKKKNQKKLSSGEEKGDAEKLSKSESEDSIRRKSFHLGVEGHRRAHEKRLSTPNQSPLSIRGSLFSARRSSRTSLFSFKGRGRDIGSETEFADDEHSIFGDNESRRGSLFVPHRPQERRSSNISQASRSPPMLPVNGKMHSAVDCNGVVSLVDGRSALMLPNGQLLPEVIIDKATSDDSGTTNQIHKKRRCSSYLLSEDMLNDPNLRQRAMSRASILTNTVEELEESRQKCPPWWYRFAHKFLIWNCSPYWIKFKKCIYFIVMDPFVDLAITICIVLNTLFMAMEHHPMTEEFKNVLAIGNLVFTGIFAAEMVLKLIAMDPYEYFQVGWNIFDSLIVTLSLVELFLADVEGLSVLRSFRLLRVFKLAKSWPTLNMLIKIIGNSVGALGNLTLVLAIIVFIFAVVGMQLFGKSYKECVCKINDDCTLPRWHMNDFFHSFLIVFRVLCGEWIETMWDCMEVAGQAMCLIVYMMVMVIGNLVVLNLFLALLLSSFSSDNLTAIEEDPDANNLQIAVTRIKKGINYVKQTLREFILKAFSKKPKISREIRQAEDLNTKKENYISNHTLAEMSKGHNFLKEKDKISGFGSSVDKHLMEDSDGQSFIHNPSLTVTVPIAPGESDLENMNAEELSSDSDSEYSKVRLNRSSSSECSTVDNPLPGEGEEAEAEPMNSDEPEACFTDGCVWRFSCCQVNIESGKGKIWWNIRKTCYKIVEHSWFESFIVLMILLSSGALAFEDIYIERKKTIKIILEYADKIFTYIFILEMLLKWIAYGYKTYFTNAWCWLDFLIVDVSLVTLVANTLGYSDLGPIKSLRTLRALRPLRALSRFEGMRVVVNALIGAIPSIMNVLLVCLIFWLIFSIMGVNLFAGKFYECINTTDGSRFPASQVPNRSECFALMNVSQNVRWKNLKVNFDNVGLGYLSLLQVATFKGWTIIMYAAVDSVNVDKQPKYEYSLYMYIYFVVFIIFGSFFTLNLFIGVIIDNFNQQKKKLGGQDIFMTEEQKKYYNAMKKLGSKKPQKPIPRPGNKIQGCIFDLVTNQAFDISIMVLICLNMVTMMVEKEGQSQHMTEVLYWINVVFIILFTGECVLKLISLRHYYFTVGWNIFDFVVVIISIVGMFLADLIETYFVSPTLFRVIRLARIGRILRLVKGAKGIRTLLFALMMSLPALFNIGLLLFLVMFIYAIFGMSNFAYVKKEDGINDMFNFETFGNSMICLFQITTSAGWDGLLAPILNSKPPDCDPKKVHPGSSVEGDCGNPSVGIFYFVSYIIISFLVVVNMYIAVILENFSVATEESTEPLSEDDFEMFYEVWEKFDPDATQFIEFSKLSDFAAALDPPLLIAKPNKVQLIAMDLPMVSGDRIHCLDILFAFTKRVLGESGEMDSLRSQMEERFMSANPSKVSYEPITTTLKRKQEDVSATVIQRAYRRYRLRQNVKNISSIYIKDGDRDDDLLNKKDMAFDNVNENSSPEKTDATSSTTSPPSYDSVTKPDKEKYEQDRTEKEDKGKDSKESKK

[2] = In vitro metabolic stability using liver microsomes; assay type: in vitro ADME, human; settings: 60 min with liver microsomes, no NADPH or UDP-GlcUA/NADPH
Method: Compound 4 was used as reference, considering that its main pitfall was represented by metabolic instability that the newly synthesized compounds were aimed in overcoming. […] Each sample (2.5 mM) was incubated with 100 mM phosphate buffer (pH 7.4) and 20 mg/mL of liver microsomes (Thermo Fisher Scientific, Bremen, Germany). After preincubation in water bath for 5 min, the mixture was incubated with 20 mM NADPH (protocol I) at 37 °C for 60 min in a Thermomixer comfort (Eppendorf, Hamburg, Germany). For the measurement of UGT activity the microsomes were preincubated with alamethicin, which forms pores in microsomal membranes, promoting access of substrate and cofactor to UGT enzymes. Subsequently, each sample was incubated with 100 mM phosphate buffer, 500 mM magnesium chloride, 10 mM NADPH, and 20 mM UDP-GlcUA at 37 °C for 60 min. Finally, the reactions from both protocols (protocols I and II) were stopped by the addition of 200 μL of ice-cold methanol, and then samples were centrifuged at 10 000 rpm at 25 °C for 5 min (Eppendorf microcentrifuge 5424, Hamburg, Germany). The supernatants were collected and injected in UHPLC-PDA. The control at 0 min was obtained by addition of the organic solvent immediately after incubation with microsomes. […] The extent of metabolism is expressed as a percentage of the parent compound turnover using the following equation, as previously described:[43] […]

[3] = Time-course cis to trans epimerization stability (HPLC); assay type: physicochemical; settings: for conversion of cis isomer to trans isomer: during 60 min, regardless of the solvent used (PBS, methanol)
Method: In this case, a different chemical approach is required because of the minor reactivity of anilines. Intermediates THBC 32a and 32b were coupled with 3CF3 or 2F or 4-F-phenyl isocyanate in basic medium of TEA. […] Absolute configuration was determined as described above. The formation of the cis intermediates, which was not observed with the N-benzyl or N-alkyl analogs, can be explained by the increased stability of the kinetic control species due to the higher rigidity of this structure. […] In addition, the corresponding C-11a epimers 36a′–38a′ could be obtained directly by reaction of 32b with the corresponding isocyanates and TEA at 60 °C for 30 min in 39–45% yields.
Figure S1: Time-course trans (36a’-38a’) / cis (36b-38b) HPLC peak area ratio in physiological
buffer (PBS, panel A) and methanol (Panel B).

[4] = HEK-293 cells stably expressing rat TRPM8, menthol as agonist, mean ± SD of at least three measurements, read-out: IC50
[5] = Table 2, Ca2+ fluorimetric assay, read-out: IC50 Ca2+
[6] = supplementary xlsx, read-out: rTRPM8 IC50 (calcium microfluorimetric assays)

T1 sequence (Q8R455 whole entry, canonical isoform): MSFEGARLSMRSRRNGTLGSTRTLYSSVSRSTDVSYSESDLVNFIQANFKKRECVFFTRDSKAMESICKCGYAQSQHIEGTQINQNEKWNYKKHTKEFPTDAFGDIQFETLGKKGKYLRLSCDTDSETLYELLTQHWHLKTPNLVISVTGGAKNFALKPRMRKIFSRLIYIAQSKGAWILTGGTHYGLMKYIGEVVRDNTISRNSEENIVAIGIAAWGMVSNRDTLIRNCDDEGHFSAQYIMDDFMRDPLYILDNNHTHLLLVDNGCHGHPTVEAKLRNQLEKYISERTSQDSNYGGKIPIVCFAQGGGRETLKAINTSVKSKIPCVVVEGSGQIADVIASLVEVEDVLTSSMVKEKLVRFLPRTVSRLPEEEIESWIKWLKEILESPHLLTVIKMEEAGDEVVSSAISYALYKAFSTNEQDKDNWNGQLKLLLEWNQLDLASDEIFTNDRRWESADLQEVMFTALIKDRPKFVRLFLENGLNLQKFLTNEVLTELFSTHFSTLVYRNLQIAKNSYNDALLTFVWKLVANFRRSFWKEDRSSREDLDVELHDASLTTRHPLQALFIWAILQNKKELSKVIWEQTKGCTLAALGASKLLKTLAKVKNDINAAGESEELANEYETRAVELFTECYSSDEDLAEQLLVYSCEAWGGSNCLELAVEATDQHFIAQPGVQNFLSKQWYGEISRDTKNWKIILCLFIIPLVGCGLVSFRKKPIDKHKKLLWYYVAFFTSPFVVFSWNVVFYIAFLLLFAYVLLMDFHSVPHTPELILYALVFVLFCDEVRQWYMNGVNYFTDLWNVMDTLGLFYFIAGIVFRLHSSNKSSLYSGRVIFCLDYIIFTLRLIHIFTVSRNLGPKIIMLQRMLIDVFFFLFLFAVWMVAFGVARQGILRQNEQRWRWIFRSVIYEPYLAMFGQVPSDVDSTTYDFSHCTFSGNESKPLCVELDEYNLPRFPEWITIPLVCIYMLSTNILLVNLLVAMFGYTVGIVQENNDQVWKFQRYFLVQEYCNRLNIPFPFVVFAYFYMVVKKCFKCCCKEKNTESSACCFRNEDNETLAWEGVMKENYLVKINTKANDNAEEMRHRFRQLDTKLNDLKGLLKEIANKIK

IC50 (hNav1.7) [nM]	SMILES	IC50 [1, 4]	activity as agonist or antagonist on TRPV1 (hTRPV1)	activity as agonist or antagonist on TRPA1 (hTRPA1)	IC50 [1, 5] [nM]	activity as agonist or antagonist on Nav1.7 (hNav1.7)	turnover in absence of metabolic cofactors [2] [%]	IC50 [1, 6] [nM]	percentage of epimerization ([3]; during patch-clamp electrophysiology assays)	conversion of cis isomer to trans isomer [3]
> 10000	COC(=O)[C@@H]1Cc2c([nH]c3ccccc23)[C@@H](c2ccccc2)N1Cc1ccccc1 [6a, (1R,3S)-Methyl 2-Benzyl-1-phenyl-2,3,4,9-tetrahydro-1H-pyrido[3,4-b]indole-3-carboxylate]	1300 ± 700 nM	no activity as agonists or antagonists	no activity as agonists or antagonists						
	COC(=O)CC[C@H]1N[C@H](C(=O)NCc2ccc(F)cc2)Cc2c1[nH]c1ccccc21 [11a, Methyl 3-((1R,3S)-3-((4-Fluorobenzyl)carbamoyl)-2,3,4,9-tetrahydro-1H-pyrido[3,4-b]indol-1-yl)propanoate]	800 nM and 1100 nM	no activity as agonists or antagonists	no activity as agonists or antagonists	1100 ± 500	no activity as agonists or antagonists	66.5 ± 3.8			
	O=C1[C@@H]2Cc3c([nH]c4ccccc34)[C@H](c3ccc(F)cc3)N2C(=O)N1c1cccc(C(F)(F)F)c1 [36b, (5S,11aS)-5-(4-Fluorophenyl)-2-(3-(trifluoromethyl)phenyl)-5,6,11,11a-tetrahydro-1H-imidazo[1′,5′:1,6]pyrido[3,4-b]indole-1,3(2H)-dione]	200 ± 200 nM	no activity as agonists or antagonists	no activity as agonists or antagonists	200 ± 200	no activity as agonists or antagonists		300 ± 400	negligible	
	O=C1[C@@H]2Cc3c([nH]c4ccccc34)[C@H](c3ccc(F)cc3)N2C(=O)N1c1ccccc1F [37b, (5S,11aS)-2-(2-Fluorophenyl)-5-(4-fluorophenyl)-5,6,11,11a-tetrahydro-1H-imidazo[1′,5′:1,6]pyrido[3,4-b]indole-1,3(2H)-dione]									almost fully converted to the trans isomers
	O=C1[C@@H]2Cc3c([nH]c4ccccc34)[C@H](c3ccc(F)cc3)N2C(=O)N1c1ccc(F)cc1 [38b, (5S,11aS)-2,5-Bis(4-fluorophenyl)-5,6,11,11a-tetrahydro-1H-imidazo[1′,5′:1,6]pyrido[3,4-b]indole-1,3(2H)-dione]									almost fully converted to the trans isomers
> 10000	O=C(NCc1ccc(F)cc1)[C@@H]1Cc2c([nH]c3ccccc23)CN1 [compound 9, (S)-N-(4-Fluorobenzyl)-2,3,4,9-tetrahydro-1H-pyrido[3,4-b]indole-3-carboxamide]	900 ± 400 nM	no activity as agonists or antagonists	no activity as agonists or antagonists	900 ± 400			600 ± 1300		
	O=C1N[C@H](Cc2ccccc2)C(=O)N2Cc3[nH]c4ccccc4c3C[C@@H]12 [compound 23, (3R,12aS)-3-Benzyl-2,3,12,12a-tetrahydropyrazino[1′,2′:1,6]pyrido[3,4-b]indole-1,4(6H,7H)-dione]	400 ± 100 nM	no activity as agonists or antagonists	no activity as agonists or antagonists	400 ± 100	no activity as agonists or antagonists		300		
